US4810636A, “Chromogenic acridinone enzyme substrates” (Miles Inc., priority 1987, dated 1989)
Where “and” joins values, the source holds several entries; their conditions need not be identical. Identical values can stand only once.

How the values were obtained:
α-amylase [1] = assay: Liquid analytical test system for the detection of α-amylase; assay type: biochemical; settings: for Absorbance (634 nm): 37° C.; for Absorbance/Minute: average of three consecutive readings between 3 and 6 minutes
Method: A liquid α-amylase detection reagent was prepared by combining 1.8 mM DMA-G7 (43) prepared according to Example 9, 38 units of α-glucosidase and 20 units of β-glucosidase in 1.0 mL of buffered solution comprising 50 mM PIPES, 50 mM NaCl, and 5.0 mM calcium chloride (pH 7.0). Amylase control serum (0.025 mL) containing 37 IU/L, 175 IU/L, and 313 IU/L, respectively, of α-amylase were added to the detection reagent, independently, and incubated at 37° C. The enzymatic action of α-amylase on the substrate compound in each of the mixtures liberated shorter chain chromogenic maltooligosaccharide compounds thereof (e.g., DMA-G2 to DMA-G4) which, in turn, was enzymatically acted upon by the α-glucosidase and β-glucosidaseto liberate the optically active form of the dimethyl acridinone chromogen (20). The rate of color change produced by the liberated chromogen in each of the mixtures was measured at 634 nm on a Cary 219 spectrophotometer (Varian Associates, Inc., Sonnyvale, Calif., U.S.A.) from between 1 and 9 minutes after each of the serum samples were added to the detection reagent (Table 2).

α-amylase [2] = assay: Analytical test device for the detection of α-amylase, reflectance; assay type: biochemical; settings: for Reactivity × 10^-2: linear regression of L(R) between 180 and 200 seconds, 630 nm
Method: A sheet of Whatman 54 filter paper (Whatman, Inc., Clifton, N.J., U.S.A.) was immersed into a solution comprising the liquid α-amylase detection reagent prepared according to Example 10, 0.1% Triton X-100 (Sigma Chemical Co., St. Louis, Mo., U.S.A.) and 0.5% carboxycellulose, and dried.
Analytical test devices were prepared by mounting 0.5 cm wide×1.0 cm long segment of the aforementioned impregnated filter paper onto and along the edge of one surface of 0.5 cm×8.125 cm polystyrene supports (Tricite®, Dow Chemical Co., Midland, Mich., U.S.A.) previously laminated with a 2 mm strip of Double Stick® double-faced adhesive tape (3M Company, St. Paul, Minn., U.S.A.).
Three 30 μL aliquots of undiluted serum containing 39 IU/L, 78 IU/L, 117 IU/L, 157 IU/L, 235 IU/L, and 313 IU/L, respectively, of α-amylase were applied, independently, to a test device and the rate of color change produced by the liberated chromogen on each device was measured at 630 nm on a Seralyzer® reflectance photometer (Miles Inc., Elkhart, Ind., U.S.A.) from between 0 seconds and 240 seconds after the serum sample was added to each test device.

[3] = Visible absorbance (λmax, extinction coefficient) of substrate and chromogen; assay type: physicochemical; settings: for absorbance (λmax): uncleaved substrate or protonated chromogen
Description: (§1) According to a preferred embodiment of the present invention, chromogenic enzyme substrate compounds of the general formula (8), where Y is a radical of an enzyme-specific sugar moiety Y--OH, preferably β-D-galactose or β-D-glucose, and R and R' are methyl, can be prepared by reacting the dimethyl chromogen (20) with a 1-halogeno-derivative of the enzyme-specific moiety, preferably a 1-bromo-derivative thereof, substituted at the hydroxy-positions thereof with protecting groups, preferably acetate protecting groups, to result in per-O-substituted derivatives which can be hydrolyzed to remove such protecting groups to obtain the desired chromogenic enzyme substrate compound. For example, the β-D-galactoside of (20), the chromogenic enzyme substrate (8) where Y is the radical of β-D-galactose and R and R' are methyl, can be prepared for use in the determination of β-D-galactosidase. In particular, the dimethyl acridinone chromogen (20), where R and R' are methyl in the general formula (2), is reacted with acetobromogalactose and silver oxide in ethyl acetate/quinoline to prepare the 7-(tetra-O-acetyl-β-D-galactopyranosyloxy)-9,9-dimethyl-9H-acridin-2-one (31) of the formula: [drawing 13] The acetate protecting groups of (31) are then hydrolyzed with sodium methoxide in methanol to result in the desired 7-β-D-galactopyranosyloxy-9,9-dimethyl-9H-acridin-2-one (32) of the present invention of the formula: [drawing 14] The resulting galactoside (32) has an absorbance (λmax) of 438 nm (yellow), an extinction coefficient of 27,400, and is soluble in a phosphate buffered solution (pH 7.4).
(§2) (C), 2462 (1970), where R and R' in the general formula (2) are methyl.

[4] = Solubility and stability in aqueous buffered / basic solution; assay type: physicochemical
Description: as §1, with “The acetate protecting groups of (31) are then hydrolyzed with sodium methoxide in methanol to result in the desired 7-β-D-galactopyranosyloxy-9,9-dimethyl-9H-acridin-2-one (32) of the present invention of the formula: [drawing 14]” left out, “7.4). […]” for “7.4).”

[5] = Phenolic pKa of the chromogen; assay type: physicochemical
Description: as §2

alkaline phosphatase = assay: Hydrolysis of the phosphate substrate by alkaline phosphatase (KM, Kcat); assay type: biochemical; settings: 1.0M diethanolamine buffer (pH=9.8) containing 5.0 mM MgCl2
β-D-galactosidase [6] = target: T1, β-D-galactosidase (Escherichia coli, UniProt P00722); assay: Hydrolysis of the galactoside substrate by β-D-galactosidase (Kcat, Km); assay type: biochemical; settings: 50 mM phosphate buffered solution (pH 7.4) containing 5 mM MgCl2
T1 sequence (P00722 2-1024): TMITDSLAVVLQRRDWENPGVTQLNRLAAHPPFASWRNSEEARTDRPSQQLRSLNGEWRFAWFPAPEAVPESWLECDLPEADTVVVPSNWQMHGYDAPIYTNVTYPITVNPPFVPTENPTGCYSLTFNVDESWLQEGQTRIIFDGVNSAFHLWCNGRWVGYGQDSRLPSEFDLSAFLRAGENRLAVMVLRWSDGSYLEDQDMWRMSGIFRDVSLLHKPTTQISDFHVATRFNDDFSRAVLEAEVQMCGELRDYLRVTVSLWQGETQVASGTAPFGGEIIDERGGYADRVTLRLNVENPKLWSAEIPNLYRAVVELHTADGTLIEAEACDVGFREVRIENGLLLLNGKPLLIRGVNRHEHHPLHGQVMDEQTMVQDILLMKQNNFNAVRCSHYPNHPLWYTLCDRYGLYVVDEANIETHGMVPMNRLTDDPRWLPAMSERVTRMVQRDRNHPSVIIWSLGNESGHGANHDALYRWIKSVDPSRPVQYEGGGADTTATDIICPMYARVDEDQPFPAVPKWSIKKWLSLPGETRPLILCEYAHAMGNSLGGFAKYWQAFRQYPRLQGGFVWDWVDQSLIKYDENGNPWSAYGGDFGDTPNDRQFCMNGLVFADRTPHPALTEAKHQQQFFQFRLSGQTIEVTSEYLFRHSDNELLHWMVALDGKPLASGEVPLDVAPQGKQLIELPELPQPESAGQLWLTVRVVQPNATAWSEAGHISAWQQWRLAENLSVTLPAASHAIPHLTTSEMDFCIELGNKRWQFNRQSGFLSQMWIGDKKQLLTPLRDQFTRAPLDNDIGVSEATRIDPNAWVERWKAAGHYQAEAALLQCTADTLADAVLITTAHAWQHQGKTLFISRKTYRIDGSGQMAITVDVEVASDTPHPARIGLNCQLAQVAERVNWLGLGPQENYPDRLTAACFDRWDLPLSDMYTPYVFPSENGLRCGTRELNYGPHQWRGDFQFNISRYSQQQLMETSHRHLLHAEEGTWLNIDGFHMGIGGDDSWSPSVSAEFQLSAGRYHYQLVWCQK
Description: as §1, with “The acetate protecting groups of (31) are then hydrolyzed with sodium methoxide in methanol to result in the desired 7-β-D-galactopyranosyloxy-9,9-dimethyl-9H-acridin-2-one (32) of the present invention of the formula: [drawing 14]” left out

β-D-galactosidase [7] = target: T1, β-D-galactosidase; assay: Analytical test device for β-D-galactosidase, reflectance dose response; assay type: biochemical; settings: 0.02-0.20 ng/ml β-D-galactosidase, reflectance at 630 nm after 50-70 seconds
Method: A 2 inch wide×2 inch long sheet of Whatman 54 filter paper (Whatman, Inc., Clifton, N.J., U.S.A.) was immersed in an aqueous solution comprising 0.3M bicine buffer (pH 7.9) and 4.0 mM MgCl2 and air-dried overnight at room temperature. The filter paper was then immersed in a methanol solution containing 15 mM of the substrate product (32) from Example 3 and air-dried for one hour at room temperature to obtain a filter paper which was yellow in color.
A 0.5 cm wide×1.0 cm long segment of the above-described impregnated yellow filter paper was mounted onto and along the edge of one surface of a 0.5 cm×8.125 cm polystyrene support (Tricite®, Dow Chemical Co., Midland, Mich., U.S.A.) previously laminated with a 2 mm strip of Double Stick® double-faced adhesive tape (3M Company, St. Paul, Minn., U.S.A.) for use as an analytical test device for the detection of β-D-galactosidase from a liquid test sample.
Ten analytical test devices were prepared according to Example 4 and employed to determine the dose response of the substrate product compound (32) of the present invention to β-D-galactosidase.
[…] aqueous test sample solutions containing β-D-galactosidase concentrations of 0.02 ng/ml, 0.04 ng/ml, 0.06 ng/ml, 0.08 ng/ml, 0.12 ng/ml, 0.14 ng/ml, 0.16 ng/ml, 0.18 ng/ml and 0.20 ng/ml were prepared and an analytical test device dipped into each.

CC1(C)C2=CC(=O)C=CC2=Nc2ccc(O[C@@H]3O[C@H](CO)[C@@H](O[C@H]4O[C@H](CO)[C@@H](O[C@H]5O[C@H](CO)[C@@H](O[C@H]6O[C@H](CO)[C@@H](O[C@H]7O[C@H](CO)[C@@H](O[C@H]8O[C@H](CO)[C@@H](O[C@H]9O[C@H](CO)[C@@H](O)[C@H](O)[C@H]9O)[C@H](O)[C@H]8O)[C@H](O)[C@H]7O)[C@H](O)[C@H]6O)[C@H](O)[C@H]5O)[C@H](O)[C@H]4O)[C@H](O)[C@H]3O)cc21 [DMA-G7, 7-β-maltoheptaosyloxy-9,9-dimethyl-acridin-2-one]
dose response to the α-amylase concentration (α-amylase [1]; 37-313 IU/L, readings between 3 and 6 minutes): linear dose response | Absorbance (634 nm) (α-amylase [1]; 37 IU/L α-amylase, 1 minute): 0.123 | Absorbance (634 nm) (α-amylase [1]; 37 IU/L α-amylase, 2 minutes): 0.129 | Absorbance (634 nm) (α-amylase [1]; 37 IU/L α-amylase, 3 minutes): 0.138 | Absorbance (634 nm) (α-amylase [1]; 37 IU/L α-amylase, 4 minutes): 0.148 | Absorbance (634 nm) (α-amylase [1]; 37 IU/L α-amylase, 5 minutes): 0.160 | Absorbance (634 nm) (α-amylase [1]; 37 IU/L α-amylase, 6 minutes): 0.172 | Absorbance (634 nm) (α-amylase [1]; 37 IU/L α-amylase, 7 minutes): 0.187 | Absorbance (634 nm) (α-amylase [1]; 37 IU/L α-amylase, 8 minutes): 0.202 | Absorbance (634 nm) (α-amylase [1]; 37 IU/L α-amylase, 9 minutes): 0.218 | Absorbance/Minute (α-amylase [1]; 37 IU/L α-amylase): 0.011 | Absorbance (634 nm) (α-amylase [1]; 175 IU/L α-amylase, 1 minute): 0.150 | Absorbance (634 nm) (α-amylase [1]; 175 IU/L α-amylase, 2 minutes): 0.178 | Absorbance (634 nm) (α-amylase [1]; 175 IU/L α-amylase, 3 minutes): 0.223 | Absorbance (634 nm) (α-amylase [1]; 175 IU/L α-amylase, 4 minutes): 0.279 | Absorbance (634 nm) (α-amylase [1]; 175 IU/L α-amylase, 5 minutes): 0.341 | Absorbance (634 nm) (α-amylase [1]; 175 IU/L α-amylase, 6 minutes): 0.409 | Absorbance (634 nm) (α-amylase [1]; 175 IU/L α-amylase, 7 minutes): 0.481 | Absorbance (634 nm) (α-amylase [1]; 175 IU/L α-amylase, 8 minutes): 0.555 | Absorbance (634 nm) (α-amylase [1]; 175 IU/L α-amylase, 9 minutes): 0.631 | Absorbance/Minute (α-amylase [1]; 175 IU/L α-amylase): 0.062 | Absorbance (634 nm) (α-amylase [1]; 313 IU/L α-amylase, 1 minute): 0.171 | Absorbance (634 nm) (α-amylase [1]; 313 IU/L α-amylase, 2 minutes): 0.212 | Absorbance (634 nm) (α-amylase [1]; 313 IU/L α-amylase, 3 minutes): 0.282 | Absorbance (634 nm) (α-amylase [1]; 313 IU/L α-amylase, 4 minutes): 0.372 | Absorbance (634 nm) (α-amylase [1]; 313 IU/L α-amylase, 5 minutes): 0.474 | Absorbance (634 nm) (α-amylase [1]; 313 IU/L α-amylase, 6 minutes): 0.585 | Absorbance (634 nm) (α-amylase [1]; 313 IU/L α-amylase, 7 minutes): 0.702 | Absorbance (634 nm) (α-amylase [1]; 313 IU/L α-amylase, 8 minutes): 0.823 | Absorbance (634 nm) (α-amylase [1]; 313 IU/L α-amylase, 9 minutes): 0.948 | Absorbance/Minute (α-amylase [1]; 313 IU/L α-amylase): 0.109 | dose response to α-amylase (α-amylase [2]; 39-313 IU/L α-amylase in undiluted serum): linear dose response | Reactivity × 10^-2 (α-amylase [2]; 39 IU/L α-amylase serum): 0.384 × 10^-2 and 0.373 × 10^-2 and 0.359 × 10^-2 | Reactivity × 10^-2 (α-amylase [2]; 78 IU/L α-amylase serum): 0.957 × 10^-2 and 0.941 × 10^-2 and 0.954 × 10^-2 | Reactivity × 10^-2 (α-amylase [2]; 117 IU/L α-amylase serum): 1.450 × 10^-2 and 1.510 × 10^-2 and 1.430 × 10^-2 | Reactivity × 10^-2 (α-amylase [2]; 157 IU/L α-amylase serum): 1.781 × 10^-2 and 1.999 × 10^-2 and 1.886 × 10^-2 | Reactivity × 10^-2 (α-amylase [2]; 235 IU/L α-amylase serum): 2.560 × 10^-2 and 2.596 × 10^-2 and 2.610 × 10^-2 | Reactivity × 10^-2 (α-amylase [2]; 313 IU/L α-amylase serum): 2.961 × 10^-2 and 2.989 × 10^-2 and 2.916 × 10^-2

CC1(C)C2=CC(=O)C=CC2=Nc2ccc(O)cc21 [Compound 20, 7-hydroxy-9,9-dimethyl-9H-acridin-2-one, reference compound]
shift in the absorbance maximum on deprotonation [3]: 176 nm | absorbance of the deprotonated anion ([3]; deprotonated chromogen): 635 nm | extinction coefficient of the anion ([3]; pH=10, in M-1 cm-1 (unit assumed)): 53,100 | absorbance (λmax) [3]: 459 nm | solubility and stability ([4]; aqueous, basic solutions): soluble and stable | phenolic pKa [5]: 7.1

CC1(C)C2=CC(=O)C=CC2=Nc2ccc(OP(=O)(O)O)cc21 [Compound 37, disodium-9,9-dimethyl-9H-acridin-2-one-7-phosphate]
Kcat (alkaline phosphatase): 1.94×10^5 mol/min/mol of enzyme | Km (alkaline phosphatase): 480 µM

CC1(C)C2=CC(=O)C=CC2=Nc2ccc(O[C@@H]3O[C@H](CO)[C@H](O)[C@H](O)[C@H]3O)cc21 [Compound 32, 7-β-D-galactopyranosyloxy-9,9-dimethyl-9H-acridin-2-one]
rate at which the enzyme cleaves the substrate (Kcat) (β-D-galactosidase [6]): 1.32×10^4 mol. min.^-1 /mol. active site | Km (β-D-galactosidase [6]; read-out: binding constant (Km)): 170 µM | change in absorbance between substrate and liberated chromogen anion [3]: 196 nm | absorbance of the liberated chromogen anion ([3]; after hydrolysis by β-D-galactosidase, phosphate buffered solution): 634 nm | absorbance (λmax) [3]: 438 nm | extinction coefficient ([3]; uncleaved substrate, at 438 nm, in M-1 cm-1 (unit assumed)): 27,400 | solubility ([4]; phosphate buffered solution (pH 7.4)): soluble | dose response of reflectance to β-D-galactosidase (β-D-galactosidase [7]): linear dose response
